The source of these data is patent US10087165B2, “Fluoroquinolones and use thereof to treat bacterial infections” (UNIVERSITÉ PIERRE ET MARIE CURIE—PARIS 6 (UPMC), priority 2014, dated 2018).

Test [1] concerns M. tuberculosis H37Rv. Description: microbe, parasite or virus in culture. Set-up: MIC against wild-type M. tuberculosis strain (below moxifloxacin MIC): unit not given beside the values. The conditions noted are these: for MIC: Mycobacterium tuberculosis. The class given is cell-based.
Test [2] addresses T1, M. tuberculosis DNA gyrase (Mycobacterium tuberculosis, UniProt P9WG45+P9WG47). Details: made in house. Particulars: Table 2; published previously (Poissy et al. 2010); cited from earlier work.
For test [3], the system named is M. tuberculosis H37Rv. Particulars: Table 2, published previously (Poissy et al. 2010); cited from earlier work.
Test [4] relates to M. tuberculosis H37Rv strain. Description: Minimal effective dosage in the murine TB model. It counts as in vivo, Balb/C/J female mice. Particulars: 25 mg/kg/j, Gavage. The procedure:
Four-week-old Balb/C/J female mice were infected intravenously with 10^6 CFU of M. tuberculosis H37Rv strain. On the day following the infection (D1), 10 mice were sacrificed to determine the exact baseline values of spleen weight and CFU counts in the lungs. The remaining mice were allocated to the following treatment groups: an untreated negative control group for survival monitoring, a positive control group treated for 1 month with isoniazid (INH) 25 mg/kg/d, […] test groups were treated with Quin18 and Quin19 at increasing dosages (25 mg/kg/d; 50 mg/kg/d; 100 mg/kg/d; 150 mg/kg/d) given by oral gavage, and two additional test groups were treated intravenously with Quin18 25 mg/kg/d and 100 mg/kg/d. All the groups contained 10 mice and were treated from D1 to D28, 5 days a week. The parameters used for assessing the severity of infection and the effectiveness of treatments were survival rate, spleen weight, gross lung lesions and CFU counts in the lungs.
The minimal effective dosage was defined as the minimal dosage able to prevent mortality of the mice, spleen enlargement and the occurrence of gross lung lesions. CFU counts were considered to be a more precise way of determining the dose-ranging efficacy of Quin18 and Quin19.
Survival rates between groups were plotted on a Kaplan-Meier curve and compared using the log-rank test.

The target in test [5] is T1, M. tuberculosis DNA gyrase. Description: biochemical.
[6] abbreviates: H37Rv, Table 2, read-out: MIC (M. tuberculosis) WT.
The mark [7] stands for this setting: H37RV, Table 3, read-out: MIC M. tuberculosis H37Rv.

Converted amounts (≈) assume the structure as drawn. Like-named read-outs stand apart in the source and are kept apart here. Some results are limits rather than exact numbers.

T1 sequence (P9WG47 whole entry): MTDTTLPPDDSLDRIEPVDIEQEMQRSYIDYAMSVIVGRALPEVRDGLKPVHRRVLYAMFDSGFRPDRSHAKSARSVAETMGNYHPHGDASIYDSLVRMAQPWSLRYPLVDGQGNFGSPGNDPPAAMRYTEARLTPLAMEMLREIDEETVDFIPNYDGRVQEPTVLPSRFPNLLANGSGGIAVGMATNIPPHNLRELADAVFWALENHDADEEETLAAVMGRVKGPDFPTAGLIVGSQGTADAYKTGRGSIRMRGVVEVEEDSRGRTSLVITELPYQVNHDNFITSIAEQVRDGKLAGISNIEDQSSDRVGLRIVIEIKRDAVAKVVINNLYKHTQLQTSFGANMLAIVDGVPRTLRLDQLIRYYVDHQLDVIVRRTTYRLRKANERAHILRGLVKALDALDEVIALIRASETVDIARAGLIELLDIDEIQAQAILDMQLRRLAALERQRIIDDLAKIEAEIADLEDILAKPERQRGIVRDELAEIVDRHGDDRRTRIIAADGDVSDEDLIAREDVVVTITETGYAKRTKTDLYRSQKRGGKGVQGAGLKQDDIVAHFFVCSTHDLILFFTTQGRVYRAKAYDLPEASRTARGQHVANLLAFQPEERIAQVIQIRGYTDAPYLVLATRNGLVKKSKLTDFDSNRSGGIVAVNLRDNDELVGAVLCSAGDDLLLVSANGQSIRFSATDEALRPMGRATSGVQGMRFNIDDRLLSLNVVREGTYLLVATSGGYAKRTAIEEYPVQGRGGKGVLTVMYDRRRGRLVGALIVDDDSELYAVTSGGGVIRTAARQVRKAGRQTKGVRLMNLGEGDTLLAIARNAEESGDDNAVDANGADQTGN
T1 sequence (P9WG45 whole entry): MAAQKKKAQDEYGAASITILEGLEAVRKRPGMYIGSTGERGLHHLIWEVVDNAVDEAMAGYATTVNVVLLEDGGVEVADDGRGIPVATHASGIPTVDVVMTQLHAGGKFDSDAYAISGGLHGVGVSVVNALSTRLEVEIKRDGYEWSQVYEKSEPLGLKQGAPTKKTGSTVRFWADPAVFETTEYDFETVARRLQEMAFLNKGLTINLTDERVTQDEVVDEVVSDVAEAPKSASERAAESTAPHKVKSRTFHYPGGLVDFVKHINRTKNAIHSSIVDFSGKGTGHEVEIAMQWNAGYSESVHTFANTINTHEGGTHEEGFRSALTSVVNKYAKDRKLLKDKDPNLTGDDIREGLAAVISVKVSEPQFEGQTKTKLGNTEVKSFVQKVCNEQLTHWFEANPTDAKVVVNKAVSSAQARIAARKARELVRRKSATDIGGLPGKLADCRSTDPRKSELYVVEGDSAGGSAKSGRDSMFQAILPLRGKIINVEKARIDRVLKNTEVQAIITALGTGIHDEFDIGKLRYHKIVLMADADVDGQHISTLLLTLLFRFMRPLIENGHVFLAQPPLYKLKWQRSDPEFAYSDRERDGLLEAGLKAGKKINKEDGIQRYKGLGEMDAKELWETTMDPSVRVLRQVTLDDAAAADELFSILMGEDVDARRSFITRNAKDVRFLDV

With `O=C(O)c1cn(C2CC2)c2cc(N3CCNCC3)c(F)cc2c1=O` [Ciprofloxacin, ciprofloxacin, reference compound], the MIC in the test with M. tuberculosis H37Rv [1] (setting [6]) was 1.5 µM (≈ 0.497 µg/mL). With `CCCCCCCN1CCN(c2c(F)cc3c(=O)c(C(=O)O)cn(C4CC4)c3c2OC)CC1` [Compound 15, 1-cyclopropyl-6-fluoro-7-(4-heptylpiperazin-1-yl)-8-methoxy-4-oxo-1,4-dihydroquinoline-3-carboxylic acid], the MIC in the test on M. tuberculosis H37Rv [1] (setting [7]) turned out to be 2.2 µM (≈ 1.01 µg/mL). Regarding `CCCCCCCCCN1CCN(c2c(F)cc3c(=O)c(C(=O)O)cn(C4CC4)c3c2OC)CC1` [Compound 17, 1-cyclopropyl-6-fluoro-8-methoxy-7-(4-nonylpiperazin-1-yl)-4-oxo-1,4-dihydroquinoline-3-carboxylic acid], in the test with M. tuberculosis H37Rv [1] (setting [7]), the MIC is 0.12 µM (≈ 0.0585 µg/mL).

As for `CCCCCCCCCCCN1CCN(c2c(F)cc3c(=O)c(C(=O)O)cn(C4CC4)c3c2OC)CC1` [Compound 19, 1-cyclopropyl-6-fluoro-8-methoxy-4-oxo-7-(4-undecylpiperazin-1-yl)-1,4-dihydroquinoline-3-carboxylic acid], the MIC in the test on M. tuberculosis H37Rv [1] (setting [7]) was determined as 0.25 µM (≈ 0.129 µg/mL). Consider `CCCCCCCCCCCCN1CCN(c2c(F)cc3c(=O)c(C(=O)O)cn(C4CC4)c3c2OC)CC1` [Compound 20, 1-cyclopropyl-7-(4-dodecylpiperazin-1-yl)-6-fluoro-8-methoxy-4-oxo-1,4-dihydroquinoline-3-carboxylic acid], for which the MIC in the test on M. tuberculosis H37Rv [1] (setting [7]) is 0.47 µM (≈ 0.249 µg/mL).

Turning to `COc1c(N2CCNC(C)C2)c(F)cc2c(=O)c(C(=O)O)cn(C3CC3)c12` (centres unmarked) [Gatifloxacin, gatifloxacin], the IC50 in test [2] is 6.8 µM. The “MIC (M. tuberculosis) WT” value in the test with M. tuberculosis H37Rv [3] is 0.32 µM (≈ 0.12 µg/mL). For `NNC(=O)c1ccncc1` [Isoniazid, isoniazid, reference compound], the Spleen weight in test [4] is recorded as 237 ± 73.8 mg. Also, in test [4] (D1 to D28, 5 days a week, 10 mice), the “Survival: No. death” value was found to be 0. As to `COc1c(N2C[C@@H]3CCCN[C@@H]3C2)c(F)cc2c(=O)c(C(=O)O)cn(C3CC3)c12` [Moxifloxacin, moxifloxacin, reference compound], the MIC in the test with M. tuberculosis H37Rv [1] (setting [7]) was determined as 1.2 µM (≈ 0.482 µg/mL). In the test on M. tuberculosis H37Rv [1] (Table 3), the “MIC against wild-type M. tuberculosis strain (below moxifloxacin MIC)” value is 1.2. In the case of `CCCCCCCCCCN1CCN(c2cc3c(cc2F)c(=O)c(C(=O)O)cn3C2CC2)CC1` [Quin 9, 1-cyclopropyl-7-(4-decylpiperazin-1-yl)-6-fluoro-4-oxo-1,4-dihydroquinoline-3-carboxylic acid], the MIC in the test on M. tuberculosis H37Rv [1] (setting [6]) amounted to 0.5 µM (≈ 0.236 µg/mL). 120 µM corresponded to half-maximal inhibition in test [5] (IC50). Regarding `CCCCCCCCCCCCCCCCN1CCN(c2cc3c(cc2F)c(=O)c(C(=O)O)cn3C2CC2)CC1` [Quin 10, 1-cyclopropyl-6-fluoro-7-(4-hexadecylpiperazin-1-yl)-4-oxo-1,4-dihydroquinoline-3-carboxylic acid], in the test with M. tuberculosis H37Rv [1] (setting [6]), the MIC came out at 57 µM (≈ 31.7 µg/mL). Further, in test [5], half-maximal inhibition (IC50) was put at 105 µM. Take `CCCCCN1CCN(c2cc3c(cc2F)c(=O)c(C(=O)O)cn3C2CC2)CC1` [Quin 15, 1-cyclopropyl-6-fluoro-4-oxo-7-(4-pentylpiperazin-1-yl)-1,4-dihydroquinoline-3-carboxylic acid]: the MIC in the test with M. tuberculosis H37Rv [1] (setting [6]) is 6 µM (≈ 2.41 µg/mL). In test [5], the IC50 came out at 76 µM. Regarding `CCCCCCCCN1CCN(c2cc3c(cc2F)c(=O)c(C(=O)O)cn3C2CC2)CC1` [Quin 16, 1-cyclopropyl-6-fluoro-7-(4-octylpiperazin-1-yl)-4-oxo-1,4-dihydroquinoline-3-carboxylic acid], the MIC with M. tuberculosis H37Rv [1] (setting [6]) was not above 0.2 µM. Moreover, the IC50 in test [5] was 135 µM. Turning to `CCCCCN1CCN(c2c(F)cc3c(=O)c(C(=O)O)cn(C4CC4)c3c2OC)CC1` [Quin 17, 1-cyclopropyl-6-fluoro-8-methoxy-4-oxo-7-(4-pentylpiperazin-1-yl)-1,4-dihydroquinoline-3-carboxylic acid], the MIC with M. tuberculosis H37Rv [1] (setting [6]) was determined as 3.5 µM (≈ 1.51 µg/mL). Moreover, half-maximal inhibition in test [5] (IC50) was put at 60 µM.

For `CCCCCCCCCCCCCCCCN1CCN(c2c(F)cc3c(=O)c(C(=O)O)cn(C4CC4)c3c2OC)CC1` [Quin 20, 1-cyclopropyl-6-fluoro-7-(4-hexadecylpiperazin-1-yl)-8-methoxy-4-oxo-1,4-dihydroquinoline-3-carboxylic acid], in the test on M. tuberculosis H37Rv [1] (setting [6]), the MIC is 0.2 µM (≈ 0.117 µg/mL). This compound registered an IC50 in test [5] of 121 µM.

For orientation: IC50 means the point on the concentration scale where inhibition reaches its midpoint.
